Tests used:
primary astrocytes [1] = assay: High throughput screening (HTS) for lactate secretion: acidification of extracellular medium (SNARF5); type: cell-based, mouse; design: key to Score / HTS Score (SNARF5) / Score_SNARF: fraction of plate positive-control activity (1 = 100%); conditions: for Score_SNARF: primary screening confirmation (SNARF5)
Experimental: Primary cultures of cerebrocortical astrocytes were obtained from 1-2-day-old OF1 mouse pups (Charles River Laboratories). Briefly, cortices were isolated and minced in small pieces under a dissecting microscope. The cells were incubated for 30 min at 37° C. in a solution containing 20 U/ml of papain enzyme (Worthington Biochemical), L-cysteine 1 mM (Sigma), and 10 kU/ml DNase I (Worthington Biochemical) for an enzymatic dissociation. Papain activity was stopped by the addition of fetal calf serum (FCS) to the solution, and a single-cell suspension was then obtained by mechanical dissociation, which consisted in cells trituration in a DMEM (D7777, Sigma-Aldrich) medium (supplemented with 44 mm NaHCO3, and 10 ml/L antibiotic/antimycotic solution) containing 10% FCS. The cells were seeded at an average density of 6×10^4 cells/cm^2 in poly-D-lysine-coated 96, 12 or 6-well culture plates, depending on their use, and incubated at 37° C. in a humidified atmosphere containing 5% CO2/95% air. Culture medium was renewed twice per week. Cells were stimulated and harvested between DIV14 and DIV17, when confluence and cell growth were optimal.
Secretion of lactate in a high-throughput screening (HTS) fashion was measured indirectly through the acidification of extracellular medium. To this end, primary astrocytes grown in 96-well plates for 17 days were stimulated with the compounds as listed herein.
After washing the cells twice with stimulation medium (DMEM (D5030, Sigma), 3 mM NaHCO3 and 5 mM Glucose) at 37° C., cells were stimulated with the compounds at a final concentration of 10 uM (1% DMSO final) in 50 ul per well of stimulation medium supplemented with 10 uM of the extracellular pH sensor SNARF-5F %-(AND-6)-CAR (Life Technologies Corporation). Each compound was tested in two different plates for duplicates.
After 90 min stimulation, fluorescence was read at exc. (excitation) 480 nm/emm. (emission) 580 nm and at exc 480 nm/emm. 630 nm. The ratio of fluorescence between 630 nm and 580 emission values, which represents extracellular pH, was calculated.
In each plate, 8 wells were used for negative controls (DMSO) and 8 wells were used for positive controls (CCCP 2 uM in DMSO). Z prime values were calculated for each of the plates tested and values<0 were discarded.
The average and SD of compounds' values tested in duplicates were calculated, and compound was noted as HIT when the difference between compound's average and negative control's average was greater than three times the sum of compound's SD and negative controls' SD. Only scores greater than 40% were considered as lead Hits for the CDC54K library; for the remaining libraries, all hits were considered. Scores are calculated as the % of activity compared to the positive control in each plate (which is 100%).
Primary screening hits were cherry picked on new plates and confirmed for SNARF5 effect, after having discarded those compounds that are fluorescent (exc. 480 nm/emm. 580 nm or 630 nm) before stimulation. Extracellular medium was next analyzed for extracellular lactate quantification for secondary screening.
Identification of lactate-enhancing drugs with high throughput screening (HTS) experiments on astrocytes primary cultures using extracellular pH dye (SNARF5F 5-(and-6)-carboxylic acid) for 90 min. The procedure is described in Material and Methods (2. Cell culture, 2.1. HTS for lactate secretion and 2.2. Extracellular lactate quantification).
The procedure was performed as follows: • Primary screening: acidification of the extracellular medium • Primary screening confirmation: acidification of the extracellular medium, removal of compounds with fluorescent activity at exc. 480 nm/emm. 580 nm or 630 n. • Secondary screening: dosage of extracellular lactate

primary astrocytes [2] = assay: Extracellular lactate quantification; type: cell-based, mouse; conditions: for Score_LACTATE: Appendix I, secondary screening: extracellular lactate
Experimental: Secretion of L-lactate was determined in the extracellular medium of 96-well plated astrocytes after 90 min stimulation (at 37° C., in 5% CO2/95% air conditions) with the drug of interest. The stimulation medium was composed of D5030 medium (completed with D-glucose 5 mM and 44 mM sodium bicarbonate) for 90 min in concentrations ranging from 0 to 100 μM.
Briefly, 200 μl of a Glycine (Sigma)-Semicarbazide (Acros) 0.2M pH 10 buffer containing 3 mM NAD (Roche) and LDH 14 U/ml (Roche) was added to each well of a 96-well plate containing 30 μl aliquots complemented with 20 μl fresh complete D5030 medium. Samples were incubated at 37° C. for 1 h. After samples cooled down at room temperature, the fluorescence intensity (340 nm excitation/450 nm emission) that represents the amount of NADH produced was measured, and lactate concentration values were determined from a standard curve of L-lactate.
Statistical analysis consisted in ANOVA followed by Fisher LSD post-hoc test for pair-wise comparisons.
Levels of lactate secreted by astrocytes were measured in the extracellular medium at 90 min after stimulation with hits (molecules) from the CDC54K library.

[3] = Appendix I, CDC54K primary screening, 10 uM, 90 min, relative to CCCP 2 uM

| SMILES | Score_SNARF (primary astrocytes [1]; Appendix I) | Score_LACTATE (primary astrocytes [2]) | further results |
| --- | --- | --- | --- |
| CCn1nccc1-c1csc(S(=O)(=O)Nc2ccccc2OC)c1 [L924-1088] | 0.8835 | 0.9106 |  |
| CCc1ccc(S(=O)(=O)N2CCSC2c2ccc(OC)c(OC)c2)cc1 (stereo not drawn) [4052-4304] | 0.4491 | 0.4335 |  |
| CC(=O)N1CCCc2cc(S(=O)(=O)NCc3cccc(C(F)(F)F)c3)ccc21 [T6099519] | 0.3944 | 0 |  |
| Cc1cccc([N+]2=C3SCCCN3C(O)(c3ccc(F)cc3)C2)c1 (stereo not drawn) [K404-0394] | 0.3309 | 0.4429 |  |
| Cc1cccc([N+]2=C3SCCCN3C(O)(c3ccc(Cl)cc3)C2)c1.[Br-] (stereo not drawn) [F0522-0533] | 0.4705 | 0 |  |
| O=C(c1noc2ccc(S(=O)(=O)Nc3cccc(F)c3)cc12)N1CCCC1 [L995-0058] | 0.4197 | 0.424 |  |
| Clc1ccc2c(c1)CCc1cccnc1C2=C1CCNCC1 [Desloratadine] |  |  | Score (primary astrocytes [1]; Prestwick library, 10 uM, 90 min, activity relative to positive control CCCP 2 uM): 0.06079; HTS Score (lactate) (primary astrocytes [1]; Prestwick library, 10 uM, 90 min, relative to positive control CCCP 2 uM): 0.061 |
| CCOc1ccc(C2(O)C[N+](c3ccccc3C)=C3CCCCN32)cc1.[Br-] (stereo not drawn) [F0524-0511] | 0.5555 | 0 |  |
| O=C(Cc1cccc(F)c1)N1CCC(Nc2ncnc3c2CCC3)C1 (stereo not drawn) [T636-2360] | 0 | 0.413 |  |
| O=C(c1ccc(Cl)s1)N1CCC(Nc2ncnc3c2CCC3)C1 (stereo not drawn) [T636-2391] | 0.8743 | 0.8854 |  |
| Cc1cc(S(=O)(=O)NCc2ccncc2)c(Cl)cc1Cl [T5581430] | 0.505 | 0 |  |
| COc1ccc(C2(O)C[N+](c3cc(C)ccc3C)=C3SCCCN32)c(F)c1 (stereo not drawn) [K404-0183] | 0 | 0 |  |
| Cc1ccc(F)cc1NC(=O)Cc1nn(C)c(=O)c2ccccc12 [T6302989] | 0.4072 | 0 |  |
| Cc1ccc(CNS(=O)(=O)c2cc(-c3noc(C4CCCC4)n3)cs2)cc1 [L287-1641] | 0.626 | 0.8035 |  |
| COc1ccccc1[N+]1=C2CCCCCN2C(O)(c2ccc(F)cc2)C1.[Br-] (stereo not drawn) [F0524-0611] | 0.5954 | 1.547 |  |
| CCc1ccc(C2(O)C[N+](c3ccccc3OC)=C3CCCCN32)cc1 (stereo not drawn) [K404-0672] | 1.014 | 1.356 |  |
| O=C(C[n+]1cc(-c2ccc(Br)cc2)n2c1CCCCC2)c1ccccc1.[Br-] [T0500-4648] | 1.034 | 1.116 |  |
| COc1ccc(C2(O)C[N+](c3ccccc3C)=C3CCCCN32)cc1.[Br-] (stereo not drawn) [F0524-0507] | 0.4491 | 0 |  |
| Cc1ccc(CN2CCN(c3ncnc4c3CCC4)CC2)o1 [T636-1937] | 0.473 | 0.8045 |  |
| Fc1ccc(Nc2nc(N3CCOCC3)c3ccccc3n2)cc1 [T0508-5193] | 0.3052 | 0 |  |
| COc1ccc(C2(O)C[N+](c3cccc(C)c3)=C3CCCCN32)cc1 (stereo not drawn) [K404-0796] | 0.6402 | 0 |  |
| COc1ccccc1S(=O)(=O)Nc1ccc2nc(C)sc2c1 [T5246417] | 0.2455 | 0 |  |
| Cc1ccsc1C(=O)NC1CCN(c2ncnc3c2CCC3)C1 (stereo not drawn) [T636-1114] | 0.6238 | 0.5477 |  |

| SMILES | Score_SNARF (primary astrocytes [1]; Appendix I) | Score_LACTATE (primary astrocytes [2]) | further results |
| --- | --- | --- | --- |
| O=S(=O)(Nc1ccc(O)c(Cl)c1)c1ccc2ccccc2c1 [T0517-8939] | 0.6382 | 0 |  |
| Cc1cccc([N+]2=C3CCCCCN3C(O)(c3ccc(F)cc3)C2)c1 (stereo not drawn) [K404-0910] | 0.5878 | 0.6219 |  |
| O=C(NCc1cccc(F)c1)NC1CCN(c2ncnc3c2CCC3)C1 (stereo not drawn) [T636-1243] | 0.4179 | 0 |  |
| c1ccc2c(c1)CN(c1ncnc3sccc13)CCN2 [T6768300] | 0.3742 | 0 |  |
| COc1ccc(C)cc1NS(=O)(=O)c1cc(-c2ccnn2C)cs1 [L924-0830] | 0.7153 | 0.9168 |  |
| CC(Nc1ncnc2sccc12)c1ccccn1 (stereo not drawn) [T5672380] | 0.7508 | 0.5883 | Score Lact. (primary astrocytes [2]; Appendix II, CDC54K library): 0.58 |
| CCOc1ccc(C2(O)C[N+](c3cc(OC)ccc3OC)=C3CCCCCN32)cc1 (stereo not drawn) [K404-0860] | 0.6137 | 0.4766 |  |
| Cc1nc(N2CCCC(C(=O)NCc3cccnc3)C2)c2c(C)c(C)oc2n1 (stereo not drawn) [F228-0856] | 0 | 0 |  |
| O=C(NC1CC1)c1cccc(NS(=O)(=O)c2ccc(N3CCCC3=O)cc2)c1 [T5618591] | 0.5353 | 0.3601 |  |
| COc1ccc(OC)c([N+]2=C3CCCCCN3C(O)(c3ccc(C)cc3)C2)c1 (stereo not drawn) [K404-0855] | 0.4944 | 0.6277 |  |
| Cc1ccc(C)c([N+]2=C3CCCCN3C(O)(c3ccc(F)cc3)C2)c1 (stereo not drawn) [K404-0697] | 0.5123 | 0.6526 |  |
| COc1ccccc1Nc1nc(N2CCOCC2)c2ccccc2n1 [F3007-0009] | 0 | 0 |  |
| Cn1nccc1-c1csc(S(=O)(=O)Nc2ccc(F)cc2)c1 [L924-0760] | 0.7695 | 0.7898 |  |
| COc1ccccc1[N+]1=C2CCCCN2C(O)(c2ccc(F)cc2)C1.[Br-] (stereo not drawn) [F0524-0338] | 0.634 | 1.585 |  |
| O=S(=O)(NC1CCCC1)c1cc(-c2noc(C3CCC3)n2)cs1 [L287-1221] | 0.5995 | 0.6602 |  |
| Cc1ccc(CNc2ncnc3c2CCC3)o1 [T636-0054] | 0 | 0 |  |
| CCn1nccc1-c1csc(S(=O)(=O)Nc2cc(C)ccc2C)c1 [L924-0988] | 0.6652 | 0.6139 |  |
| CCOc1ccc(C2(O)C[N+](c3ccccc3OC)=C3CCCCN32)cc1 (stereo not drawn) [K404-0673] | 0.9751 | 2.024 |  |
| O=C(NCc1ccccc1)NC1CCN(c2ncnc3c2CCC3)C1 (stereo not drawn) [T636-1210] | 0.4305 | 0.3226 |  |
| COc1ccc(C2(O)C[N+](c3ccccc3C)=C3CCCCCN32)cc1OC (stereo not drawn) [K404-0906] | 0 | 0 |  |
| COc1ccccc1[N+]1=C2CCCCCN2C(O)(c2cccc([N+](=O)[O-])c2)C1 (stereo not drawn) [K404-0842] | 0.2022 | 0 | Score (primary astrocytes [1]; [3]): 0.169 |
| Cc1oc2ncnc(N3CCCC(C(=O)NCc4cccnc4)C3)c2c1C (stereo not drawn) [F228-0351] | 0.82 | 0.8985 |  |
| Cc1cccc([N+]2=C3CCCCCN3C(O)(c3cccc([N+](=O)[O-])c3)C2)c1 (stereo not drawn) [K404-0915] |  |  | Score (primary astrocytes [1]; [3]): 0 |

Source: patent publication US12310967B2, “Compositions and methods of treatment for neurological disorders comprising motor neuron diseases” (Gliapharm SA, priority 2017, dated 2025)
